Data on ten compounds can be found in patent US20110166121A1 (LG LIFE SCIENCES LTD., priority 2008, published 2011).

The test system of this experiment is Human platelet aggregation caused by ADP. Briefly: Inhibition of ADP-induced platelet aggregation (Mimic-human PRP). It is filed as cell-based. The conditions noted are these: 20 μM ADP, human platelet concentrate diluted with PPP, absorption at 595 nm. The gist of the method: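 Human PRP diluted with PPP to 3–4×10^8 platelets/mL was preincubated 20 min at room temperature with compound (0.01–30 μM, DMSO), then stimulated with 20 μM ADP. Aggregation read as A595 increase at 3 min versus 0 and 20 μM ADP controls; Ki from sigmoidal non-linear regression.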
In turn, `CCCc1cc2c(N3CCn4c(nnc4C(F)(F)F)C3)nc(OCCCNC(=O)OC)nc2s1` [Example 9-86, {3-[6-Propyl-4-(3-trifluoromethyl-5,6-dihydro-8H-[1,2,4]triazolo[4,3-a]pyrazin-7-yl)-thieno[2,3-d]pyrimidin-2-yloxy]-propyl}-carbamic acid methyl ester] came in with a Ki of 690 nM.
`CCCc1cc2c(N3CCn4c(nnc4C(F)(F)F)C3)nc(N[C@H]3CCN(C(C)=O)C3)nc2s1` [Example 8-13, 1-{(S)-3-[6-Propyl-4-(3-trifluoromethyl-5,6-dihydro-8H-[1,2,4]triazolo[4,3-a]pyrazin-7-yl)-thieno[2,3-d]pyrimidin-2-ylamino]-pyrrolidin-1-yl}-ethanone] gave a Ki of 3 nM.
Compound `CCCc1cc2c(N3CCn4c(nnc4C(F)(F)F)C3)nc(-n3cc(N)cn3)nc2s1` [Example 9-56, 1-[6-Propyl-4-(3-trifluoromethyl-5,6-dihydro-8H-[1,2,4]triazolo[4,3-a]pyrazin-7-yl)-thieno[2,3-d]pyrimidin-2-yl]-1H-pyrazol-4-ylamine] came in with an inhibition constant (Ki) of 30 nM. This Ki lies about 10-fold higher than the previous one.
With `CCCc1cc2c(N3CCn4c(nnc4C(F)(F)F)C3)nc(N3CC[C@H](C(=O)NN)C3)nc2s1` [Example 9-72, (S)-1-[6-Propyl-4-(3-trifluoromethyl-5,6-dihydro-8H-[1,2,4]triazolo[4,3-a]pyrazin-7-yl)-thieno[2,3-d]pyrimidin-2-yl]-pyrrolidine-3-carboxylic acid hydrazide], the inhibition constant (Ki) was 0.6 nM.
Compound `CCCC(=O)N1CC[C@@H](COc2nc(N3CCn4c(nnc4C(F)(F)F)C3)c3cc(CCC)sc3n2)C1` [Example 8-35, 1-{(R)-3-[6-Propyl-4-(3-trifluoromethyl-5,6-dihydro-8H-[1,2,4]triazolo[4,3-a]pyrazin-7-yl)-thieno[2,3-d]pyrimidin-2-yloxymethyl]-pyrrolidin-1-yl}-butan-1-one] came in with a Ki of 49 nM.
Turning to `CCCc1cc2c(N3CCn4c(nnc4C(F)(F)F)C3)nc(N3CC[C@H](N(CCO)C(C)=O)C3)nc2s1` [Example 9-96, N-(2-Hydroxy-ethyl)-N-{(S)-1-[6-propyl-4-(3-trifluoromethyl-5,6-dihydro-8H-[1,2,4]triazolo[4,3-a]pyrazin-7-yl)-thieno[2,3-d]pyrimidin-2-yl]-pyrrolidin-3-yl}-acetamide], the affinity corresponds to a Ki of 78 nM. Against the preceding compound, the Ki is about 1.6-fold higher.
In turn, `CCCc1cc2c(N3CCn4c(nnc4C(F)(F)F)C3)nc(OCCn3cncn3)nc2s1` [Example 9-44, 7-[6-Propyl-2-(2-[1,2,4]triazol-1-yl-ethoxy)-thieno[2,3-d]pyrimidin-4-yl]-3-trifluoromethyl-5,6,7,8-tetrahydro-[1,2,4]triazolo[4,3-a]pyrazine] showed a Ki of 9.8 nM.
The same measure for `CCCC(=O)NCCNc1nc(N2CCn3c(nnc3C(F)(F)F)C2)c2cc(CCC)sc2n1` [Example 8-8, N-{2-[6-Propyl-4-(3-trifluoromethyl-5,6-dihydro-8H-[1,2,4]triazolo[4,3-a]pyrazin-7-yl)-thieno[2,3-d]pyrimidin-2-ylamino]-ethyl}-butyramide]: 85 nM.
The same measure for `CCCc1cc2c(N3CCn4c(nnc4C(F)(F)F)C3)nc(N3CC[C@H](NC(=O)Cc4csc(N)n4)C3)nc2s1` [Example 1-119, 2-(2-Amino-thiazol-4-yl)-N-{(S)-1-[6-propyl-4-(3-trifluoromethyl-5,6-dihydro-8H-[1,2,4]triazolo[4,3-a]pyrazin-7-yl)-thieno[2,3-d]pyrimidin-2-yl]-pyrrolidin-3-yl}-acetamide]: 7.2 nM; for `CCCc1cc2c(N3CCn4c(nnc4C(F)(F)F)C3)nc(OCCNC(=O)CO)nc2s1` [Example 7-32, 2-Hydroxy-N-{2-[6-propyl-4-(3-trifluoromethyl-5,6-dihydro-8H-[1,2,4]triazolo[4,3-a]pyrazin-7-yl)-thieno[2,3-d]pyrimidin-2-yloxy]-ethyl}-acetamide]: 0.8 nM.

The Ki is the equilibrium dissociation constant of an inhibitor or competing ligand from its target. Higher therefore signals weaker binding.
